Several values for one entry are separate records, joined by “and”; a condition that tells them apart may be missing. Equal entries are not always repeated.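 Compound exposure: 48 hours, 5 concentrations, 96-well plates. At the GI50, growth is halved.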 Activity calls are given as the source filed them. No stated cut-off is given here; in the data, active = GI50 up to about 1.1 µM and inactive = higher.

The values that follow come from ChEMBL document CHEMBL1201862, “PubChem BioAssay data set” (2004).

Test systems include DLD-1; HOP-18; KM-20L2; M19-MEL; RXF 631; SNB-78; XF498; DMS-273; Hs-578T.
Assay in all cases: DTP human tumour cell line panel, 48 h

By GI50 is commonly meant the concentration that inhibits growth by half. With `CCC(=O)OC[n+]1ccc2c(C)c3[nH]c4ccccc4c3c(C)c2c1`, the GI50 was 0.229 µM (active) in the experiment with DLD-1; < 0.01 µM (active) in the experiment with HOP-18; 0.504 µM (active) with KM-20L2; 0.681 µM (active) in the experiment on M19-MEL; 0.504 µM (active) in the experiment on RXF 631; 1.29 µM (inactive) in the experiment with SNB-78. For the same compound, in the experiment on XF498, the GI50 was 1.88 µM (inactive).

Consider `COc1cc(/C=C\c2ccc(O)cc2)cc(OC)c1OC`, for which the GI50 in the experiment on DLD-1 is > 100 µM (inactive); in the experiment on DMS-273, 0.35 µM (active); in the experiment with HOP-18, 22.3 µM (inactive); in the experiment on KM-20L2 it was 33.3 µM (inactive); in the experiment with M19-MEL it was 3.66 µM (inactive); in the experiment on SNB-78, 3.96 µM (inactive). The GI50 in the experiment with XF498 was 9.98 µM (inactive).

In the case of `CC[C@@]12N=C(N(C)C)C[C@]1(O)ON=C2C`, the GI50 in the experiment with DLD-1, with DMS-273, with HOP-18, with KM-20L2, with M19-MEL and in the experiment on XF498 was > 100 µM (inactive) in each case.

For `CC12CCC(CC1)C(C)(C)O2` [EUCALYPTOL], the GI50 in the experiment with DLD-1 was 25.9 µM (inactive); with DMS-273, 3.56 µM (inactive); in the experiment on KM-20L2 it was 38.8 µM (inactive); in the experiment on M19-MEL, 11.5 µM (inactive); in the experiment on RXF 631, > 100 µM (inactive); in the experiment on SNB-78 it was 67.6 µM (inactive). In addition, the GI50 in the experiment on XF498 was 2.16 µM (inactive).

For the compound `Cc1ccccc1-c1c(N)nc(N)nc1C(=O)Nc1nccs1`, the GI50 in the experiment on DLD-1, in the experiment on DMS-273, with HOP-18, in the experiment on KM-20L2, in the experiment on M19-MEL and in the experiment on RXF 631 was > 100 µM (inactive) throughout. Moreover, the GI50 in the experiment on SNB-78 and in the experiment on XF498 was > 100 µM (inactive) in each case.

Regarding `N#CC1C(C#N)C2(c3ccccc3)C(c3ccccc3)=NN(c3ccccc3)CC12` (stereo unspecified), the GI50 with DLD-1, with DMS-273, in the experiment with HOP-18, with KM-20L2, in the experiment with M19-MEL and in the experiment with SNB-78 was > 100 µM (inactive) throughout. Further, in the experiment with XF498, the GI50 is > 100 µM (inactive).

`CC1=C(C(=O)Nc2ccccc2)C(c2cc(Cl)cc(Cl)c2)C(C(=O)Nc2ccccc2)=C(C)N1`: the GI50 is 4.14 µM (inactive) in the experiment on DLD-1; 10.2 µM (inactive) in the experiment with DMS-273; 12.5 µM (inactive) in the experiment on HOP-18; 9.06 µM (inactive) with KM-20L2; 10.4 µM (inactive) with M19-MEL; 18 µM (inactive) in the experiment on RXF 631. Moreover, the GI50 is 17.1 µM (inactive) with SNB-78 and 13.4 µM (inactive) with XF498.

Consider `CN(C)CCOc1cccc2c1C(=O)c1ccccc1C2=O`, for which the GI50 with DLD-1 was 8.34 µM (inactive); in the experiment on DMS-273, 10.1 µM (inactive); with HOP-18, 16 µM (inactive); in the experiment with KM-20L2, 13.9 µM (inactive); in the experiment with M19-MEL, 5.65 µM (inactive); in the experiment on SNB-78 it was 13.6 µM (inactive). For the same compound, the GI50 in the experiment on XF498 was 18.7 µM (inactive).

Regarding `CC(C)(C)OC(=O)N1N=NC2C3OC(CC3=O)C21` (stereo unspecified), the GI50 in the experiment on DLD-1, with DMS-273, in the experiment on HOP-18, in the experiment with KM-20L2, in the experiment with RXF 631 and with SNB-78 was > 100 µM (inactive) throughout.

With `CCCCCCCCCCCCCC(=O)O[C@H]1CC[C@H](NC(=O)[C@H](OC)[C@H](O)[C@@H](O)[C@H](O)/C=C/C(C)C)C(=O)NC1` [BENGAMIDE A], the GI50 was 0.00512 µM (active) in the experiment with DMS-273; > 10 µM (inactive) in the experiment with HOP-18; 0.237 µM (active) in the experiment on Hs-578T; 0.0045 µM (active) in the experiment on KM-20L2; 0.0033 µM (active) with M19-MEL; > 10 µM (inactive) in the experiment with SNB-78. Moreover, in the experiment on XF498, the GI50 was 0.0147 µM (active).

On to `CCN/C(=N\Nc1ccc([N+](=O)[O-])cc1)P(=O)(OC(C)C)OC(C)C`, for which the GI50 in the experiment with DLD-1 is > 100 µM (inactive); in the experiment on DMS-273, > 100 µM (inactive); in the experiment on KM-20L2 it was > 100 µM (inactive); with M19-MEL it was > 100 µM (inactive); in the experiment on SNB-78 it was > 100 µM (inactive); with XF498 it was 66.5 µM (inactive).

`COc1ccc(CNc2cnc3cc(N)ccc3n2)cc1`: the GI50 in the experiment with DMS-273, in the experiment with KM-20L2, in the experiment on M19-MEL, with SNB-78 and in the experiment on XF498 was > 100 µM (inactive) each time.

Take `CC(C)(C)c1cc(C(=O)O)c2c(c1)C(=O)OC2(c1ccccc1)c1ccccc1C(=O)O` (stereo unspecified): the GI50 in the experiment with DLD-1, in the experiment with DMS-273, with HOP-18, in the experiment on KM-20L2, in the experiment with M19-MEL and in the experiment on XF498 was > 100 µM (inactive) each time.

In the case of `c1ccc(C2=NN3CN(N2)c2ccccc2OCCCOc2ccccc23)cc1`, the GI50 in the experiment with DMS-273, with KM-20L2, in the experiment on M19-MEL, in the experiment on SNB-78 and in the experiment with XF498 was > 100 µM (inactive) in each case.

As to `C=CC(=O)N1C/C(=C\c2ccccc2)C(=O)/C(=C/c2ccccc2)C1`, the GI50 was 0.458 µM (active) with DLD-1; 0.668 µM (active) in the experiment on DMS-273; 3.24 µM (inactive) in the experiment with HOP-18; 1.66 µM (inactive) in the experiment with KM-20L2; 0.979 µM (active) in the experiment on M19-MEL; 1.7 µM (inactive) with XF498.

With `Cc1c(Cl)cccc1NC(=O)CC1Sc2ccccc2NC1=O` (stereo unspecified), the GI50 in the experiment on DLD-1 was 35 µM (inactive) and 24.1 µM (inactive); in the experiment with HOP-18, 13.2 µM (inactive) and 15.1 µM (inactive); in the experiment on Hs-578T, 2.99 µM (inactive); in the experiment on KM-20L2 it was 24.6 µM (inactive) and 22.4 µM (inactive); with M19-MEL it was 46.9 µM (inactive) and 32 µM (inactive); in the experiment with SNB-78, 30 µM (inactive) and 48.6 µM (inactive). Besides, the GI50 in the experiment on XF498 is 22.9 µM (inactive) and 22.8 µM (inactive).

`O=C(OCC1CO1)c1cccs1` (stereo unspecified): the GI50 with DLD-1, in the experiment on DMS-273, with KM-20L2, with M19-MEL, with RXF 631 and in the experiment with SNB-78 was > 100 µM (inactive) each time. In addition, the GI50 with XF498 is > 100 µM (inactive).

For the compound `O=C(O)c1ccc(C2=Cc3cc(Cl)ccc3OC2)cc1`, the GI50 is > 100 µM (inactive) in the experiment on DLD-1; > 100 µM (inactive) with DMS-273; 55.1 µM (inactive) in the experiment with HOP-18; > 100 µM (inactive) in the experiment with KM-20L2; > 100 µM (inactive) in the experiment with M19-MEL; > 100 µM (inactive) with SNB-78. Moreover, the GI50 in the experiment with XF498 is > 100 µM (inactive).

Regarding `NC1=C(NC(=O)Cc2ccc(F)cc2)C(=O)c2ccccc2C1=O`, the GI50 was > 33.3 µM (inactive) in the experiment with DLD-1; 33.1 µM (inactive) in the experiment on DMS-273; > 100 µM (inactive) in the experiment with KM-20L2; 9.73 µM (inactive) in the experiment on M19-MEL; > 60.4 µM (inactive) in the experiment on RXF 631; 26.1 µM (inactive) in the experiment on SNB-78. Moreover, the GI50 in the experiment with XF498 was > 78.7 µM (inactive).

For `Cn1cnc([N+](=O)[O-])c1Sc1nc2ccccc2s1`, the GI50 is 5.07 µM (inactive) with DLD-1; 1.36 µM (inactive) in the experiment on DMS-273; 0.286 µM (active) in the experiment on HOP-18; 10.4 µM (inactive) with KM-20L2; 11.5 µM (inactive) in the experiment on M19-MEL; 4.84 µM (inactive) with RXF 631. Also, the GI50 in the experiment with SNB-78 was 12.7 µM (inactive).

With `Cc1nc2ccccc2c(=O)n1/N=C(\N=N\c1ccccc1Cl)c1ccccc1`, the GI50 in the experiment on DLD-1 was 29.1 µM (inactive); with DMS-273, 31.6 µM (inactive); in the experiment on HOP-18, 27.5 µM (inactive); with KM-20L2, 21.9 µM (inactive); in the experiment with M19-MEL it was 25.8 µM (inactive); with XF498, 21.1 µM (inactive).

As to `CCCCCCCCCCCCCC(=O)NO`, the GI50 with DLD-1 was 13.2 µM (inactive); in the experiment with DMS-273 it was 14.3 µM (inactive); in the experiment with HOP-18, 34.4 µM (inactive); in the experiment on KM-20L2, 7.64 µM (inactive); in the experiment with M19-MEL, 24 µM (inactive); in the experiment on RXF 631, 10.9 µM (inactive). Further, the GI50 in the experiment on SNB-78 is 19.8 µM (inactive); with XF498, 24.4 µM (inactive).

Take `C=CC1(C)CC(=O)C2(O)C(C)(O1)C(OC(C)=O)C(O)C1C(C)(C)CCC(O)C12C` (stereo unspecified): the GI50 is > 150 µM (inactive) in the experiment with DLD-1; > 139 µM (inactive) with DMS-273; 41.3 µM (inactive) in the experiment on HOP-18; 110 µM (inactive) with KM-20L2; 104 µM (inactive) with M19-MEL; > 100 µM (inactive) in the experiment with RXF 631. Also, the GI50 in the experiment with SNB-78 was 5.4 µM (inactive); with XF498, 61.8 µM (inactive).

Regarding `O=[N+]([O-])c1c(/C=N/Nc2ccccc2)oc(-c2ccc3c(c2)OCO3)c1-c1ccc2c(c1)OCO2`, the GI50 in the experiment on DLD-1 was 5.73 µM (inactive); in the experiment with KM-20L2, 2.24 µM (inactive); with M19-MEL it was 13.8 µM (inactive); in the experiment with RXF 631, 65.8 µM (inactive); with XF498, 2.89 µM (inactive).

Take `COC(=O)C(C(=O)C(=O)Nc1cccc(C)c1)C1=NC(N)SS1` (stereo unspecified): the GI50 in the experiment on DLD-1, in the experiment with DMS-273, in the experiment with HOP-18, in the experiment on KM-20L2, with M19-MEL and in the experiment on RXF 631 was > 100 µM (inactive) each time. For the same compound, the GI50 with SNB-78 and in the experiment on XF498 was > 100 µM (inactive) throughout.

As to `C=C(C)[C@H]1CC[C@@]2(C)C(C1)[C@H](C)CC[C@@H]2O` (stereo partly specified), the GI50 in the experiment on DLD-1, in the experiment on DMS-273, in the experiment on HOP-18, with KM-20L2, with M19-MEL and in the experiment on RXF 631 was > 100 µM (inactive) throughout. The GI50 in the experiment on SNB-78 and in the experiment with XF498 was > 100 µM (inactive) throughout.
